Type in all cases: functional, organism-based
Experiment [1] deals with Oryza sativa. Kind of experiment: Induction of disease resistance in Oryza sativa Nipponbare (rice) assessed as increase in sakuranetin level in press-injured leaves at 0.1% after 48 hr by HPLC-MS-MS analysis.
The subject of experiment [2] is Oryza sativa. Description: Induction of disease resistance in Oryza sativa Nipponbare (rice) assessed as increase in momilactone level in press-injured leaves at 10 mM after 48 hr by HPLC-MS-MS analysis.
Experiment [3] concerns Oryza sativa. Kind of experiment: Induction of disease resistance in Oryza sativa Nipponbare (rice) assessed as increase in sakuranetin level in press-injured leaves at 10 mM after 48 hr by HPLC-MS-MS analysis.
For experiment [4], the system named is Oryza sativa. Description: Induction of disease resistance in Oryza sativa Nipponbare (rice) assessed as increase in momilactone level in press-injured leaves at 0.5 mM pretreated with water 24 hr prior to compound treatment measured after 8 to 10 hr by HPLC-MS-MS analysis relative to control.
Experiment [5] deals with Oryza sativa. Description: Induction of disease resistance in Oryza sativa Nipponbare (rice) assessed as increase in jasmonic acid level in press-injured leaves at 0.5 mM after 1 to 2 hr by HPLC-MS-MS analysis relative to control.
Experiment [6] relates to Oryza sativa. Description: Induction of disease resistance in Oryza sativa Nipponbare (rice) assessed as increase in jasmonic acid level in press-injured leaves at 0.5 mM pretreated with water 24 hr prior to compound treatment measured after 6 hr by HPLC-MS-MS analysis relative to control.
The subject of experiment [7] is Oryza sativa. Description: Induction of disease resistance in Oryza sativa Nipponbare (rice) assessed as increase in sakuranetin level in uninjured leaves at 0.5 mM pretreated with water 24 hr prior to compound treatment measured after 8 to 10 hr by HPLC-MS-MS analysis relative to control.
Experiment [8] relates to Oryza sativa. Description: Induction of disease resistance in Oryza sativa Nipponbare (rice) assessed as increase in momilactone level in uninjured leaves at 0.5 mM pretreated with water 24 hr prior to compound treatment measured after 8 to 10 hr by HPLC-MS-MS analysis relative to control.
Experiment [9] has as its system Oryza sativa. Description: Induction of disease resistance in Oryza sativa Nipponbare (rice) assessed as increase in sakuranetin level in press-injured leaves at 0.5 mM pretreated with water 24 hr prior to compound treatment measured after 8 to 10 hr by HPLC-MS-MS analysis relative to control.

Active and inactive are the calls of the source. The rule behind the calls is not given here.

Take `C[S+](CC[C@H](N)C(=O)[O-])C[C@H]1O[C@@H](n2cnc3c(N)ncnc32)[C@H](O)[C@@H]1O` (stereo not given in full): the outcome with Oryza sativa [1] was inactive.

As to `N[C@@H](Cc1ccccc1)C(=O)O`, the outcome in the experiment with Oryza sativa [1] was inactive.

Consider `O=P(O)(O)CCCl`, for which the outcome in the experiment with Oryza sativa [2] was inactive. The result with Oryza sativa [3] was Active.

Consider CUPRIC CHLORIDE, for which the outcome in the experiment on Oryza sativa [4], in the experiment with Oryza sativa [6] and in the experiment with Oryza sativa [9] was Active. The outcome in the experiment on Oryza sativa [5], in the experiment with Oryza sativa [7] and in the experiment on Oryza sativa [8] was inactive.

The record behind these values is ChEMBL document CHEMBL3045938, “Methionine-induced phytoalexin production in rice leaves” (2000).
